Experiments:
[1] = tested on: HCT116 tumors; assay: Subcutaneous HCT116 tumors in SCID mice; type: in vivo, mouse; conditions: sc HCT116 tumors
Protocol: SCID mice (C.B.17 SCID) were bred by the Laboratory Animal Shared Resource at Roswell Park Comprehensive Cancer Center. Male mice at 7-8 weeks of age were used. All mouse experiments were approved by the Institutional Animal Care and Use Committee at Roswell Park Comprehensive Cancer Center under protocol 1022M. We established subcutaneous tumors by inoculating 1×10^6 HCT116 cells, 4×10^6 HT29 cells, or 2×10^6 SW48 cells to the flank of each mouse in 100 μl of serum free medium. Colon patient-derived xenograft (PDX) 14650 was established from a liver metastatic lesion in a patient treated at Roswell Park Comprehensive Cancer Center. Tumor fragments (˜20 mm^3) from donor mice were implanted into the flank of each mouse subcutaneously using a trocar. Orthotopic colon tumors in mice were established by inoculating HCT116 cells stably transfected with firefly luciferase (2×10^6 cells in 50 μl of 50% serum-free medium and 50% Matrigel) to the caecum wall of each mouse. Mice in each tumor model were randomized cage-wise into treatment groups using Research Randomizer (www.randomizer.org). Subcutaneous tumor volume was measured using length ×width^2÷2. Tumor volume was measured three times each week. Orthotopic tumor growth was monitored by bioluminescence weekly. Mice were given D-luciferin (150 mg/kg) by ip and anesthetized with isoflurane, and tumor burden was measured by bioluminescence using the IVIS Spectrum In Vivo Imaging System (PerkinElmer). Drug treatment was started when significant tumor growth was detected. EP (0.5 mg/kg) was administered to mice ip once daily. […] Aderbasib (60 mg/kg) was administered to mice by gavage once daily. 5-FU (35 mg/kg) was administered to mice ip twice weekly (Monday and Thursday). EP, PEPD^G278D and 5-FU were administered to mice in PBS. Aderbasib was first dissolved in DMSO and then diluted by PBS (final 5% DMSO by volume). Each agent was administered to mice at 0.1 ml volume per 20 g body weight. When a mouse was given multiple agents on the same day, the agents were dosed at approximately 30 min intervals. The mice were closely monitored for sign of adverse effects and weighed three times each week. Mice were sacrificed 24-48 hours after the last treatment, at which point the tumors were promptly removed, snap frozen and stored at −80° C. for later analysis. Some tumors were fixed in 10% buffered formalin, paraffin embedded, cut at 4 μm, and stained with hematoxylin and eosin (H & E) for histological analysis.

[2] = tested on: HB-EGF; assay: Measurement of soluble HB-EGF in tumor tissues by ELISA; type: in vivo, mouse; conditions: HCT116 and HT29 tumors; aderbasib 60 mg/kg
Protocol: Concentrations of AREG and HB-EGF in tumor tissues were measured using the Human Amphiregulin/AREG ELISA Kit PicoKine and HB-EGF ELISA Kit, following the manufacturer's instruction. Briefly, 100 μl of standard or tumor tissue homogenate (cleared by centrifugation) was added to a microtiter well pre-coated with anti-human AREG or anti-human HB-EGF and incubated for 2 h at RT. After washing the plate with washing buffer, 100 μl of biotinylated anti-human AREG or biotinylated anti-human HB-EGF were added to each well and incubated for 1.5 h at RT. The microtiter wells were washed 3 times with wash buffer and incubated with 100 μl/well of avidin-biotin-peroxidase complex for 40 min at RT. The microtiter wells were washed 5 times with wash buffer and incubated with 90 µl/well color developing reagent for 30 min at RT. After adding 100 μl of stop solution to each well, absorbance at 450 nm was recorded by a Synergy 2 Multi-Mode Microplate Reader.

In the case of COC(=O)N1CC2(CC2)C[C@H](C(=O)NO)[C@H]1C(=O)N1CC=C(c2ccccc2)CC1 [aderbasib], the tumor growth ([1]; aderbasib alone 60 mg/kg by gavage daily) is reported as “ineffective” and the “soluble HB-EGF level in the tumor tissues” value [2] is reported as “marked decrease”.

B1: PEPD^G278D: recombinant and enzymatically inactive mutant of human peptidase D (PEPD), with replacement of glycine 278 by aspartic acid (protein)
chain: AAATGPSFWLGNETLKVPLALFALNRQRLCERLRKNPAVQAGSIVVLQGGEETQRYCTDTGVLFLQESFFHWAFGVTEPGCYGVIDVDTGKSTLFVPRLPASHATWMGKIHSKEHFKEKYAVDDVQYVDEIASVLTSQKPSVLLTLRGVNTDSGSVCREASFDGISKFEVNNTILHPEIVESRVFKTDMELEVLRYTNKISSEAHREVMKAVKVGMKEYGLESLFEHYCYSRGGMRHSSYTCICGSGENSAVLHYGHAGAPNDRTIQNGDMCLFDMDGEYYSVASDITCSFPRNGKFTADQKAVYEAVLLSSRAVMGAMKPGDWWPDIDRLADRIHLEELAHMGILSGSVDAMVQAHLGAVFMPHGLGHFLGIDVHDVGGYPEGVERIDEPGLRSLRTARHLQPGMVLTVEPGIYFIDHLLDEALADPARASFLNREVLQRFRGFGGVRIEEDVVVIDSGIELLTCVPRTVEEIEACMAGCDKAFTPFSGPK
modifications: left off: small tags and cut ends
In the case of B1, the tumor growth ([1]; EP plus PEPD^G278D 4 mg/kg ip three times weekly, or cetuximab 15 mg/kg ip twice weekly) is reported as “neither agent inhibited the growth” and the tumor growth ([1]; EP plus PEPD^G278D 8 mg/kg ip thrice weekly) is reported as “did not inhibit tumor growth”.

Reference: US20250009852A1, “DEPLETING EGFR AND HER2 OVERCOMES RESISTANCE TO EGFR INHIBITORS IN COLORECTAL CANCER” (Health Research, Inc., priority 2021, published 2025)
